Test results reported in ChEMBL document CHEMBL1152005, “Design, synthesis and X-ray crystallographic studies of novel FKBP-12 ligands” (Bioorg Med Chem Lett, 1995).

Tests used:
[1] = Compound was evaluated for its ability to inhibit the rotamase activity of FKBP-12; settings: read-out: Ki app
[2] = Compound was evaluated for its ability to inhibit the rotamase activity of FKBP-12; no inhibition

SMILES	Ki [1] [µM]	Ki app [2]
CN(c1ccccc1)C12CCCC(CC(=O)C1)C2 (stereo not given)	165	–
O=C1CC2CCCC(O)(C1)C2 (stereo not given)	–	Not Active
O=C1CC2CCCC(S(=O)(=O)c3ccccc3)(C1)C2 (stereo not given)	48.5	–
O=C1CC2CCCC(Sc3ccccc3)(C1)C2 (stereo not given)	9.2	–
O=C1CC2CCCC(OCc3ccccc3)(C1)C2 (stereo not given)	85.8	–

Other lines, results leading:

Ki [1] [µM]	Ki app [2]	SMILES
116	–	O=C1CC2CCCC(Oc3ccccc3)(C1)C2 (stereo not given)
16.7	–	O=C1CC2CCCC(Oc3cccc(O)c3)(C1)C2 (stereo not given)
461	–	Cc1cccc(C)c1OC12CCCC(CC(=O)C1)C2 (stereo not given)
120	–	Cc1ccccc1OC12CCCC(CC(=O)C1)C2 (stereo not given)
92.1	–	COc1cccc(OC23CCCC(CC(=O)C2)C3)c1 (stereo not given)
